{"source": "patent US20070203079A1", "about": "“Methods of using small molecule compounds for neuroprotection” (priority 2005, published 2007)", "format_in_all_cases": "in vivo, C. elegans", "key": {"[1]": {"system": "Pdat-1::GFP+Pdat-1::α-synuclein+Pdat-1::torsinA worms", "assay": "α-synuclein toxicity assay, wt torsinA", "summary_of_the_method": "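C. elegans lines expressing GFP and α-synuclein in dopamine neurons, with wild-type or ΔE torsinA, exposed to compounds; readout is the share of worms keeping all 4 wild-type CEP dopamine neurons as 4-day adults.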"}, "[2]": {"system": "protein misfolding and aggregation in transgenic worms", "assay": "Preventative assay of protein aggregation (drug from hatching to L2 stage)", "settings": "exposure from hatching to L2 stage; scored at L3 and young adult", "summary_of_the_method": "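Transgenic worms were raised on drug plates at 20° C from hatching to L2 (about 3 days), then moved to solvent control plates. Aggregates were counted in L3 worms 8 hours later and in young adults 32 hours later. Scaled effectiveness = […], with A as solvent-only worms, B as lifelong-drug worms and C as pre-L2-exposed worms.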"}, "[3]": {"system": "worms expressing Punc-54::Q82::GFP+Punc-54::torsinA with wt torsinA only", "assay": "Protein aggregate assay in worms with wt torsinA only", "protocol": "(§1) C elegans nematodes were grown at 20° C. on NGM plates as described by Brenner (Brenner, Genetics, 1974, 77: 71-94). Several transgenic C. elegans lines were used for primary screens of the Prestwick small molecule library. A transgenic worm line expressing Punc-54::Q82-GFP; with both wild type (“wt”) (Punc=54: :torsinA) or mutant (Punc-54::torsinA(ΔE)). Torsin-A expresses a phenotype that results in visible protein aggregation under fluorescent microscope. Transgenic worms were plated on drug plates and progeny were studied for a return to soluble protein.\n(§2) Drugs were administered to C. elegans according to a standard procedure (Rand and Johnson, Methods Cell Biol, 1995, 48: 187-204), by mixing the solubilized drug with the agar medium on which the worms are grown. This mode of administration allows the continuous exposure of worms to the drug.\nEach drug was first dissolved in an appropriate solvent, followed by adding the drug solution into pre-autoclaved media, with the volume of drug solution already taken into account. […]\n(§3) The screening assays used to identify the compounds use protein aggregation readouts to determine the specificities of molecular action. […]\n(§4) The methods for the aggregate analysis assay are described in Caldwell et al. (Hum Mol Genetics, 2003, 12(3): 307-319). […] MetaMorph Software (Universal Imaging Inc.) was used for pseudocoloration of images, image overlay, and aggregate size quantitation. For each worm line analyzed, average aggregate size was determined by capturing images of all aggregates in the posterior region of 30 L3-staged animals (for Q82::GFP aggregates) or all aggregates in 30 adult animals/day (for Q19::GFP analyses) at 1000× magnification. […]\n(§5) To see the effect of the candidate compounds on suppressing protein misfolding and aggregation, five gravid adult worms were placed onto each drug plate and grown at 20° C. for approximately 3 days. Thirty Fl worms at L3 stage and young adult stage were counted for aggregate number."}, "[4]": {"system": "worms containing Punc-54::Q82::GFP+Punc-54::torsinA+Punc54::torsinA (ΔE)", "assay": "Screen for reduction of polyglutamine protein aggregates in worms with wt and mutant torsinA", "settings": "differentiated by Q82::GFP lines without torsinA, with wt torsinA or with mutant torsinA", "protocol": "as §1, §2\nEach drug was first dissolved in an appropriate solvent, followed by adding the drug solution into pre-autoclaved media, with the volume of drug solution already taken into account. […] Each plate was seeded with 100 μl concentrated E. coli OP50 bacteria.\nas §3, §4, §5"}}, "note": "Where a name gives a salt, the structure may show the parent alone."}
{"smiles": "C=N[C@@H](C(=O)N[C@@H]1C(=O)N2[C@@H]1SC(C)(C)[C@@H]2C(=O)O)c1ccccc1", "note": "[Compound 235, Metampicillin sodium salt]", "values": [{"measurement": "enhanced wild type DA neuron survival", "setting": "[1]", "result": "30.3±7", "unit": "%"}, {"measurement": "preventative effect on protein aggregation", "setting": "[2]", "result": "seem to be beneficial"}, {"measurement": "reduction of protein aggregation", "setting": "[3]", "result": "reduced protein aggregation"}, {"measurement": "Specificity in worm assay", "setting": "[4]", "result": "wt torsinA"}]}
